In patent publication US20040087612A1, “Method of increasing lacrimal gland tearing by topical administration of tacrolimus” (priority 2002, published 2004):

Test system: dogs with naturally occurring keratoconjunctivitis sicca
Test: Schirmer tear quantification in dogs treated topically with tacrolimus suspension
Format: in vivo, dog
Conditions: topical administration to the eye
Text: In the present invention, tacrolimus is typically administered topically as an aqueous ophthalmic suspension that can be in the form of drops or an ointment. While the particular mixture and efficacious concentration of tacrolimus can be varied, one such suspension used in the treatment of a number of dogs included the following: i) Approximately 0.02 percent weight/volume tacrolimus crystals, ii) Approximately 0.2 percent weight/volume hydroxypropyl methylcellulose, iii) Approximately 0.4 percent weight/volume lactose, and iv) Sterile, deionized water mixed with the first three ingredients in an amount sufficient to achieve the above-noted concentrations. The following examples illustrate the effectiveness of the treatment method of the present invention. Specifically, eleven different dogs of varying breeds and ages were treated using the above solution for treatment periods ranging from 20-84 days. The eleven dogs had naturally occurring keratoconjunctivitis sicca. The subject dogs received one drop of the above-described tacrolimus-based suspension topically in the eye, twice a day. Prior to therapy, tear production was measured using standard Schirmer tear quantification. Corneal fibrosis, vascularization and pigmentation were measured using slit lamp biomicroscopy and fundus reflection during indirect ophthalmoscopy. […]

C=CC[C@@H]1/C=C(\C)C[C@H](C)C[C@H](OC)[C@H]2O[C@@](O)(C(=O)C(=O)N3CCCC[C@H]3C(=O)O[C@H](/C(C)=C/[C@@H]3CC[C@@H](O)[C@H](OC)C3)[C@H](C)[C@@H](O)CC1=O)[C@H](C)C[C@@H]2OC [tacrolimus, Tacrolimus]
effect on lacrimal gland tearing: increases lacrimal gland tearing
